Patent US4431807A, “4-Methyl-5-(unsubstituted and substituted phenoxy)-6-methoxy-8-(aminoalkylamino)quinolines” (priority 1981, dated 1984)
Several values for one entry are separate records, joined by “and”; a condition that tells them apart may be missing. Equal values may be shown once. Read-outs that look alike come from different tables or passages of the source.

How the values were obtained:
Plasmodium berghei [1] = details: cited from earlier work
Plasmodium cynomolgi [2] = details: cited from earlier work
Plasmodium berghei [3] = assay: Blood schizonticidal (suppressive) test, Rane mouse test, P. berghei; type: in vivo, Plasmodium berghei KBG 173 in ICR/HA Swiss mice; details: for Cures (60 days survival) / Suppressive activity (active/inactive) / Toxic: five mice; for Cures (60 days survival) / Extension of survival relative to controls / Suppressive activity (active/inactive) / Toxic: Table III
Text: Blood Schizonticidal Test (Mouse), University of Miami, Rane (Suppressive)
This system is based on comparisons of responses to test compounds by Plasmodium berghei KBG 173 malaria in mice as expressed in mean survival times and the mean survival times of untreated controls. Thus, compounds noted as active produce increases in the survival times of the treated animals that are significant when compared with the survival times of untreated controls. Since an established disease is less sensitive to treatment than a disease in the early stages of development, treatment is withheld until the parasitemia is relatively high in order to insure a more reliable assay of activity and the selection of appropriate compounds for intensive preclinical studies.
Utilizing young ICR/HA Swiss mice and a standard inoculum of Plasmodium berghei KBG 173, it is possible to produce a uniform disease fatal to 100% of untreated animals within 6 to 8 days with a mean survival time of 6.2 days. Test animals weigh from 18 to 22 grams but weight variations in any given experimental or control group are confined to 2-3 grams. All animals in any given test are approximately of the same age. Animals on test are housed in metal-topped plastic cages, given a standard laboratory diet and water ad libitum.
Test animals receive an intraperitoneal injection of 0.5 ml of 1:100 dilution of heparinized heart's blood with a minimum of 90% parasitized cells (4×10^7 cells), drawn from donor mice infected one week earlier with Plasmodium berghei. The donor stran is maintained by weekly passages in separate groups of mice inoculated with a 0.5 ml of 1:500 dilution of heparinized heart's blood.
Test compounds are administered after dissolution or suspension in peanut oil. A single dose is given subcutaneously 72 hours after the mice are infected with Plasmodium berghei. At this time a 10-15 percent parasitemia has developed; the disease is well established but has not produced sufficient debility to alter the response of the host to toxic effects of the drug on test. Since treatment is withheld for three days to permit the infection to become well established and death occurs in untreated controls within 6-8 days, it is believed that this system presents a candidate compound with the maximum challenge. In order to check factors such as changes in the infectivity of Plasmodium berghei or in the susceptibility of the host or to detect technical errors, a group of infected animals treated with pyrimethamine at dose levels producing definite increases in survival time is included as a positive control in every experiment.
In each experiment test compounds are administered in graded doses. […] However, if an active drug is toxic for the host, its toxicity may become a limiting factor; continued increases in dose levels also increase the toxic effects and may result in the diminution of survival times. Deaths prior to the sixth day, when untreated controls begin to die, are regarded as non-parasitic and become the basis for toxicity evaluations. Treated animals are kept under observation for 60 days. Survivors at the end of this period of time are considered as cured.
An increase of 100% in mean survival time is considered the minimum effective response for a candidate compound. In calculating mean survival time, toxic deaths and 60 day survivors are not included.
The antimalarial activity data acquired by the two test procedures described above are listed in Tables 2 and 3 for the compounds of this invention. In Table 4, the most promising compound of the series, compound 1, is compared directly with primaquine together with some additional test data for compound 1 compared to primaquine. In all the work reported herein primaquine is used in the form of the diphosphate salt. The test data are expressed in the form of the number of cures at a given dose level. […]

Plasmodium cynomolgi [4] = assay: Radical curative (tissue schizonticidal) test, SEATO, P. cynomolgi, rhesus monkey; type: in vivo, Plasmodium cynomolgi (strain B) in Indian rhesus monkeys; details: for Molar Primaquine Index CD 100: primaquine CD100 dose / drug CD100 dose, in moles; for Radical curative activity relative to primaquine: in words
Method: Radical Curative Test in Rhesus Monkeys, SEATO Medical Research Laboratory, Bangkok, John Brown/Richard Andre
This test is designed to evaluate the tissue schizonticidal (radical curative) activity of test compounds. Well-conditioned Indian rhesus monkeys of either sex weighing 2-4 Kg are utilized. Plasmodium cynomolgi (strain B) sporozoites are prepared by grinding heavily infected Anopheles dirus salivary glands in 1:1 monkey serum-saline vehicle.
Monkeys are infected by I.V. injection of 10^6 freshly isolated P. cynomolgi sporozoites on day 0. A rapidly rising parasitemia develops after a 7-9 day prepatent period, and administration of the test drug is initiated when the rising parasite count exceeds 5000 per mm^3 (typically day 10-12). Test drugs are administered orally (by nasogastric intubation) once daily for 7 consecutive days in aqueous solution or, if insoluble, in suspension in 0.3% methylcellulose solution. Chloroquine diphosphate (3.1 mg/kg base/kg orally per day) is always administered concurrently with the test drug for 7 days to eliminate blood schizonts. Thus any tissue schizonticidal activity of the test drug will always be apparent even if it lacks blood schizonticidal activity.
A vehicle control monkey and a positive drug control (primaquine) monkey are included in each group of inoculated monkeys.
The effect of the test drug is determined by counting blood parasites. Parasite counts are made daily through day 20, and every two days thereafter. Initially a clearance of blood parasites is observed due to the blood schizonticidal action of chloroquine. […] If there is no relapse within 20 days of the initial clearance of parasitemia, the monkey is splenectomized and its parasitemia followed for an additional 30 days. If there is no relapse within this period, the experiment is terminated and the monkey is considered "cured".
Primaquine diphosphate cures over 90% of monkeys in this test system when administered at a dose of 1.3 mg/kg of salt per day for 7 days ([…]) in combination with chloroquine.
The antimalarial activity data acquired by the two test procedures described above are listed in Tables 2 and 3 for the compounds of this invention. In Table 4, the most promising compound of the series, compound 1, is compared directly with primaquine together with some additional test data for compound 1 compared to primaquine. In all the work reported herein primaquine is used in the form of the diphosphate salt. The test data are expressed in the form of the number of cures at a given dose level. Extension of life (mean survival time) relative to the controls is noted in the Rane mouse test; if the mean survival time is extended seven or more days, the compound is considered to be active.
The Molar Primaquine Index is useful in the radical curative test (Table II) as a gauge of the efficacy of a candidate drug relative to primaquine.

| SMILES | Cures (60 days survival) (Plasmodium berghei [3]; 20 mg/kg × 1, s.c.) [C] | Cures (60 days survival) (Plasmodium berghei [3]; 40 mg/kg × 1, s.c.) [C] | Molar Primaquine Index CD 100 (Plasmodium cynomolgi [4]) | Cures (60 days survival) (Plasmodium berghei [3]; 10 mg/kg × 1, s.c.) [C] | Cures (60 days survival) (Plasmodium berghei [3]; 80 mg/kg × 1, s.c.) [C] | Cures (60 days survival) (Plasmodium berghei [3]; 160 mg/kg × 1, s.c.) [C] | Cures (60 days survival) (Plasmodium berghei [3]; 320 mg/kg × 1, s.c.) [C] | Toxic (Plasmodium berghei [3]; 640 mg/kg × 1, s.c.) [T] | Cures (60 days survival) (Plasmodium berghei [3]; 640 mg/kg × 1, s.c.) [C] | also measured |
| --- | --- | --- | --- | --- | --- | --- | --- | --- | --- | --- |
| COc1cc(NC(C)CCCN)c2nccc(C)c2c1 (centres unmarked) [4-Methylprimaquine, 4-methylprimaquine] | – | – | – | – | – | – | – | – | – | Δ MST (Plasmodium berghei [1]; 160 mg/kg, 5 mice, Table I): 9 days; Δ MST (Plasmodium berghei [1]; 320 mg/kg, 5 mice, Table I): 10 days; Cures (Plasmodium berghei [1]; 640 mg/kg, 5 mice, Table I): 3C; Toxic deaths (Plasmodium berghei [1]; 640 mg/kg, 5 mice, Table I): 1T; Only curative (toxic) dose in suppressive test (Plasmodium berghei [1]; curative only at the toxic dose): 640 mg/kg; Suppressive activity (Plasmodium berghei [1]; non-toxic dose levels, prior art comparison): very weak activity; Radical curative activity (Plasmodium cynomolgi [2]; 0.316 mg/kg, prior art comparison): inactive; % cures (radical curative) (Plasmodium cynomolgi [2]; 1.0 mg/kg): 100%; Radical curative activity relative to primaquine (Plasmodium cynomolgi [2]; prior art compounds): comparable to primaquine and essentially equivalent in efficacy |
| COc1cc(NCCCC(C)N)c2nccc(C)c2c1Oc1cccc(C(F)(F)F)c1 (centres unmarked) [Compound 2, 8-((4-Amino-1-pentyl)amino)-6-methoxy-4-methyl-5-(3-trifluoromethylphenoxy)-quinoline Hemisuccinate] | 4 | 5 | 1.3 | – | – | – | – | – | – | – |
| COc1cc(NCCCCC(C)N)c2nccc(C)c2c1Oc1cccc(C(F)(F)F)c1 (centres unmarked) [Compound 3, 8-((5-Amino-1-hexyl)amino)-6-methoxy-4-methyl-5-(3-trifluoromethylphenoxy)quinoline Hemisuccinate Hydrate] | 5 | 5 | 1.3 | 3 | 4 | 4 | – | – | – | Extension of survival relative to controls (Plasmodium berghei [3]; 5 mg/kg × 1, s.c.): 13 days; Suppressive activity (active/inactive) (Plasmodium berghei [3]; 5 mg/kg × 1, s.c.): A (Active, 7 Days or more estension of survival relative to controls.) |
| CCC(CCCN)Nc1cc(OC)c(Oc2cccc(C(F)(F)F)c2)c2c(C)ccnc12.O=C(O)CCC(=O)O (centres unmarked) [Compound 4, 8-((4-Amino-1-ethylbutyl)amino)-6-methoxy-4-methyl-5-(3-trifluoromethylphenoxy)-quinoline Succinate] | 5 | 5 | 1.3 | 3 | 5 | 5 | 5 | – | – | Cures (60 days survival) (Plasmodium berghei [3]; 640 mg/kg × 1, s.c., Succinate): 2C and 3C |
| COc1cc(NC(C)CCCNC(C)C)c2nccc(C)c2c1Oc1cccc(C(F)(F)F)c1.O=C(O)CCC(=O)O (centres unmarked) [Compound 5, 8-((4-Isopropylamino-1-methylbutyl)amino)-6-methoxy-4-methyl-5-(3-trifluoromethylphenoxy)quinoline Succinate] | – | – | 1.3 | – | – | – | – | 4 | – | Suppressive activity (Plasmodium berghei [3]; in words, Table 3): totally ineffective |
| COc1ccc(Oc2c(OC)cc(NC(C)CCCN)c3nccc(C)c23)cc1.O=P(O)(O)O (centres unmarked) [Compound 6, 8-((4-Amino-1-methylbutyl)amino)-6-methoxy-5-(4-methoxyphenoxy)-4-methylquinoline Phosphate] | 1 | 5 | 4.6 | – | 5 | 5 | 5 | 3 | 2 | Extension of survival relative to controls (Plasmodium berghei [3]; 10 mg/kg × 1, s.c.): 7 days; Suppressive activity (active/inactive) (Plasmodium berghei [3]; 10 mg/kg × 1, s.c.): A (Active, 7 Days or more estension of survival relative to controls.); Radical curative activity relative to primaquine (Plasmodium cynomolgi [4]): markedly superior to primaquine |
| COc1cc(NC(C)CCCN)c2nccc(C)c2c1Oc1ccc(Cl)c(Cl)c1.O=P(O)(O)O (centres unmarked) [Compound 7, 8-((4-Amino-1-methylbutyl)amino)-5-(3,4-dichlorophenoxy)-6-methoxy-4-methylquinoline Phosphate] | 5 | 5 | 1.3 | 5 | 5 | 5 | 5 | – | 5 | Cures (60 days survival) (Plasmodium berghei [3]; 5 mg/kg × 1, s.c.): 4C |
| COc1cc(NC(C)CCCN)c2nccc(C)c2c1Oc1ccc(Cl)cc1Cl (centres unmarked) [Compound 8, 8-((4-Amino-1-methylbutyl)amino))-5-(2,4-dichlorophenoxy)-6-methoxy-4-methylquinoline Phosphate] | 5 | 5 | 1.3 | 1 | 5 | 5 | 4 | 2 | 3 | Toxic (Plasmodium berghei [3]; 320 mg/kg × 1, s.c.): 1T |
| COc1cc(NC(C)CCCN)c2nccc(C)c2c1Oc1ccc(F)cc1.O=P(O)(O)O (centres unmarked) [Compound 9, 8-((4-Amino-1-methylbutyl)amino)-5-(4-fluorophenoxy)-6-methoxy-4-methylquinoline Phosphate] | 4 | 5 | 4.5 | 3 | 5 | 5 | 4 | 2 | 3 | Extension of survival relative to controls (Plasmodium berghei [3]; 5 mg/kg × 1, s.c.): 7 days; Suppressive activity (active/inactive) (Plasmodium berghei [3]; 5 mg/kg × 1, s.c.): A (Active, 7 Days or more estension of survival relative to controls.); Toxic (Plasmodium berghei [3]; 320 mg/kg × 1, s.c.): 1T; minimal effective dose (Plasmodium berghei [3]; Plasmodium berghei, sc, single dose, read-out: Curative dose, suppressive test): 10 mg/kg; Toxicity in suppressive test (Plasmodium berghei [3]; relative to compound 1): somewhat more toxic; Radical curative activity relative to primaquine (Plasmodium cynomolgi [4]): markedly superior to primaquine |
| OC(c1cc(C(F)(F)F)nc2c(C(F)(F)F)cccc12)C1CCCCN1 (centres unmarked) [mefloquine] | – | – | – | – | – | – | – | – | – | Curative dose, Rane Test (Plasmodium berghei [1]; newer clinical suppressive drug): 20 mg/kg |
